Data from US9522124B2, “Methods for treating Alzheimer's disease” (Wisconsin Alumni Research Foundation, priority 2011, dated 2016).
pIC50: −log10 of the molar value.

Key:
BACE1 = test: Western blot assessment of BACE1 levels in H4 cell lysates; type: cell-based, human; details: H4 cells, 10 μM, 48 hours
Protocol: (§1) Western blotting was performed on a 4-12% Bis-Tris SDS-PAGE system (NuPAGE; Invitrogen, Carlsbad, Calif., USA) as described previously (Costantini et al., 2006; Jonas et al., 2008; Jonas et al., 2010; Ko and Puglielli, 2007; Ko and Puglielli, 2009; Pehar et al., 2010). The following antibodies were used in this study: anti-acetylated lysine (monoclonal; cat. no. ab409; Abcam, Cambridge, Mass., USA); anti-BACE1 (polyclonal; cat. no. ab2077; Abcam); anti-Myc (monoclonal; cat. no. sc-40; santa cruz, Santa Cruz, Calif., USA); anti-ATases/NAT8 (polyclonal; cat. no. AP4957c; Abgent, San Diego, Calif., USA); anti-actin (monoclonal; cat. no. A1978; Sigma, St Louis, Mo., USA); anti-C99 (monoclonal; cat. no. M066-3; MBL, Woburn, Mass., USA); anti-acetylated H3 (polyclonal; cat. no. 06-599, Millipore, Billerica, Mass.); anti-acetylated H4 (polyclonal; cat. no. 06-866, Millipore, Billerica, Mass.); anti-αPCNA (polyclonal; cat. no. AP2835b, Abgent, San Diego, Calif., USA).
Samples were imaged with classical chemiluminescence and with the LiCor Odyssey Infrared Imaging System (LI-COR Biosciences, Lincoln, Nebr., USA). For chemiluminescent detection, HRP-conjugated anti-mouse or anti-rabbit secondary antibodies were used at 1:6000 dilution in 3% BSA/TBST (GE Healthcare). Detection was performed with either Lumiglo (KPL) or ECL Plus (GE Healthcare). For infrared imaging, goat anti-rabbit Alexa Fluor 680-conjugated secondary antibodies were used.
To assess their biological effects, we treated human neuroglioma (H4) cells with 10 μM of both compounds. […] This might reflect different kinetics of inhibition as well as different IC50s (see FIG. 2). Alternatively, it might also be explained by different cell-permeability properties. In fact, the cLog P for compound 9 and 19 is 5.03 and 3.19, respectively. The cLog P (or partition coefficient) is an indication of partition properties of a compound between hydrophobic and hydrophilic compartments. Higher values indicate preferential distribution in hydrophobic environments and, as such, increased permeability across biological membranes.

Aβ = test: ELISA determination of secreted Aβ in conditioned media of H4 cells; type: cell-based, human; details: 10 μM, 48 hours
Protocol: For Aβ determinations in the conditioned media, H4 cells were plated in 6-well Petri dishes. When 80-90% confluent, cells were washed in PBS and incubated in 1 ml of fresh medium for 48 hr. Secreted Aβ was determined by standard sandwich ELISA as described before (Costantini et al., 2007; Costantini et al., 2006; Jonas et al., 2008; Jonas et al., 2010; Ko and Puglielli, 2009; Pehar et al., 2010). For each sample, the levels of Aβ40, Aβ42, and Aβtotal were quantified as triplicate based upon standard curves run (on every ELISA plate) and then expressed as pmol Aβ/mg of protein. Aβ42 was constantly found to be ˜25% of total Aβ values.

ATase1 and ATase2 [1] = test: In vitro acetyltransferase assay, structure-activity of derivatives of compound 9 and 19 (Tables 3, 4); type: biochemical, human; details: refers to Table 3 / Table 4
Protocol: (§2) The acetyl:CoA lysine acetyltransferase activity of ATase1 and ATase2 was assayed as described before (Ko and Puglielli, 2009). Briefly, we adapted a commercially available fluorescent kit (cat. no. 10006515, Cayman Chemicals) as follows: as source of the enzymatic activity, we used affinity purified ATase1-myc and ATase2-myc at the final concentration of 300 ng/μl; as donor of the acetyl group, we used acetyl-CoA at the final concentration of 12.5 μM. […] The acetyltransferase assay was performed as recommended by the manufacturer.
(§3) We previously described a fluorescent assay that is able to assess the acetylCoA:lysine acetyltransferase activity of ATase1 and ATase2 in vitro (Ko and Puglielli, 2009). The assay employs affinity purified ATase1 or ATase2 (as enzymes), acetyl-CoA (as donor of the acetyl group) and a recombinant peptide corresponding to the N-terminal tail of the histone protein H3 (as acceptor of the acetyl group). The H3 peptide was preferred to affinity purified BACE1 because it is acetylated in a conformation independent manner ((Ko and Puglielli, 2009) and data not shown) and, therefore, more suitable for large screening approaches. To identify possible ATase1 and ATase2 inhibitors we used the assay to screen a single library of 14,400 small molecules/compounds. The screen identified 186 small molecules/compounds able to inhibit ATase1, ATase2 or both in vitro. […] Each compound was then screened for cytotoxic properties by using multi-plex cytotoxicity assays on a variety of cell lines, including human neuroblastoma and human neuroglioma. […] The above 30 compounds were individually screened on human neuroglioma (H4) cells for their ability to reduce the levels of BACE1 and the generation of Aβ. Two compounds, 9 and 19, produced significant changes and were object of further study.
Next we decided to analyze structure-activity properties of both compounds. In the case of compound 9, we designed 13 different chemical derivatives and assessed IC50s in vitro.

ATase1 and ATase2 [2] = test: Western blot assessment of endogenous ATase1/ATase2 levels in H4 cells; type: cell-based, human; details: 10 μM, 48 hours
Protocol: FIG. 4. Compound 9 causes degradation of the ATases. (A) H4 cells were treated with the indicated compounds (10 μM) for 48 hours prior to Western blot assessment of BACE1 and ATase1/ATase2 levels in total cell lysates. (B, D and E) Quantification of changes are expressed as percent of control (no treatment) and are the average (n=3)±S.D.*, P<0.05; **, P<0.005; ^#, P<0.0005. (C) ELISA determination of secreted Aβ in the conditioned media of the experiment described in (A). Results are expressed as percent of control (no treatment) and are the average (n=3)±S.D.*, P<0.05; **, P<0.005. (F) CHO cells over-expressing either ATase1 or ATase2 were treated with compound 9 (10 μM) for 48 hours prior to Western blot assessment of ATase1 and ATase2 levels in total cell lysates.
FIG. 13. Compound 9 decreases the levels of both ATase1 and ATase2. (A) H4 cells were treated with the increasing concentrations of compound 9 for 48 hours prior to Western blot assessment of BACE1 and ATase1/ATase2 levels in total cell lysates. (B-D) Quantification of changes are expressed as percent of control (no treatment) and are the average (n=3)±S.D.*, P<0.05; **, P<0.005; ^#, P<0.0005.
as §1, with “AP2835b, Abgent, San Diego, Calif., USA).” left out

ATase1 = biological target: T1, ATase1 (Homo sapiens, UniProt Q9UHF3); test: AcetylCoA:lysine acetyltransferase assay (fluorescent, affinity purified ATase1-myc); type: biochemical
T1 construct: myc (C); made in house
T1 sequence (Q9UHF3 1-227): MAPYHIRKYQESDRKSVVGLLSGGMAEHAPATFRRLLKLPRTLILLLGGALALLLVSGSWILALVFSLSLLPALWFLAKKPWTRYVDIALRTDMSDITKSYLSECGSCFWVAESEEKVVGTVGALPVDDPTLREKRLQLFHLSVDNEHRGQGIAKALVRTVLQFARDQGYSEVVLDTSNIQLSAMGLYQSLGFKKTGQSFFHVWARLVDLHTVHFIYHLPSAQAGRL
Protocol: as §2
(§4) For kinetic analysis of ATase1 and ATase2 inhibition, the assays were performed in the presence of the indicated concentrations of compound 9, 19 and 9.I. The concentration of acetyl-CoA was varied from […]. Values were plotted as a Lineweaver-Burk plot using Graphpad Prism software.
as §3

ATase2 = biological target: T2, ATase2 (Homo sapiens, UniProt Q9UHE5); test: AcetylCoA:lysine acetyltransferase assay (fluorescent, affinity purified ATase2-myc); type: biochemical
T2 construct: myc (C); made in house
T2 sequence (Q9UHE5 1-227): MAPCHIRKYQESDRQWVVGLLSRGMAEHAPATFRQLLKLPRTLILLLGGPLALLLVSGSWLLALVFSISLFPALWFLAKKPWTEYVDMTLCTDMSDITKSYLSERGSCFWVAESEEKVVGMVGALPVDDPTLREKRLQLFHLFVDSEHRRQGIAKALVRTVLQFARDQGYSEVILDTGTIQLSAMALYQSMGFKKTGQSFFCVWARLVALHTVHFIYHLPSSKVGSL
Protocol: as §2, §4, §3

C99 = test: Western blot assessment of C99 levels in H4 cell lysates; type: cell-based, human; details: H4 cells, 48 hours
Protocol: FIG. 7. Compound 9 and 19 decrease levels and activity of BACE1. H4 cells were treated with either compound 9 or 19 for 48 hours prior to Western blot assessment of BACE1 and C99 levels in cell lysates. C99 is the immediate product of BACE1-mediated cleavage of APP.
as §1

[3] = system: cytosolic and nuclear proteins, histone proteins H3 and H4; test: Lysine acetylation profile of cytosolic and nuclear proteins in H4 cells; type: cell-based, human; details: 48 hours
Protocol: FIG. 8. […] (A and B) H4 cells were treated with either compound 9 or 19 for 48 hours prior to Western blot assessment of the acetylation profile of cytosolic (A) and nuclear (B) proteins. (C) The nuclear fraction used in (B) was also used to assess the lysine acetylation profile of the histone proteins H3 and H4.
as §1
Cytosolic and nuclear extracts were prepared as described before (Ko and Puglielli, 2007). For cytosolic extracts, cells were homogenized in homogenization buffer containing 25 mM Tris-HCl, pH 7.4, 0.5 mM EDTA, 0.5 mM EGTA, and a protease inhibitor mixture. The homogenates were centrifuged at 14,000×g for 15 min, and supernatants were collected as cytosolic proteins.
For nuclear extracts cells were scraped into ice-cold phosphate-buffered saline and collected by centrifugation. The cell pellets were suspended in 3 volumes of lysis buffer (20 mM Hepes, pH 7.9, 10 mM KCl, 1 mM EDTA, pH 8.0, 0.2% Nonidet P-40, 10% glycerol, and a protease inhibitor mixture) followed by incubation on ice for 10 min. Cell suspensions were gently pipetted up and down; the lysates were then centrifuged at 14,000×g for 5 min at 4° C. to obtain nuclear pellets. Nuclear pellets were washed twice with cell lysis buffer (lacking Nonidet P-40 and protease inhibitor mixture) and then resuspended in 2 volumes of nuclear extract buffer (20 mM Hepes, pH 7.9, 10 mM KCl, 1 mM EDTA, pH 8.0, 420 mM NaCl, 20% glycerol, and a protease inhibitor mixture). The nuclei were extracted by incubation at 4° C. for 30 min with gentle agitation followed by centrifugation at 14,000×g at 4° C. for 5 min; the resultant supernatant fraction was used as a nuclear extract.

[4] = system: histone acetyltransferase p300/CBP; test: In vitro activity of histone acetyltransferase p300/CBP; type: biochemical; details: data not shown
[5] = Lineweaver-Burk plot, acetyl-CoA varied

SMILES | inhibitory activity of derivative relative to parent compound (in words) (ATase1 and ATase2 [1]) | levels of BACE1 (BACE1) | levels of Aβ in the conditioned media / generation of Aβ (Aβ) | further results
N=c1c(Cl)c2oc3cc(N)ccc3nc-2c2ccccc12 [Compound 9.A] |  | only 9.I retained significant ability | only 9.I retained significant ability | 
CCN(CC)c1ccc2nc3c4ccccc4c(=O)cc-3oc2c1 [Compound 9.B] |  | only 9.I retained significant ability | only 9.I retained significant ability | 
Oc1c(Cl)c2nc3ccccc3nc2c2ccccc12 [Compound 9.C] | highest activity | only 9.I retained significant ability | only 9.I retained significant ability | 
CCOc1ccccc1NC1=C(Cl)C(=O)c2ccccc2C1=O [Compound 19] |  | significant reduction | decreased levels of Aβ | pIC50 (ATase1): ~4.88; kinetics of inhibition for acetyl-CoA, ATase1 (ATase1; [5]): non-competitive inhibition; pIC50 (ATase2): 4.74; kinetics of inhibition for acetyl-CoA, ATase2 (ATase2; [5]): non-competitive inhibition; cellular levels of C99 (C99): decreased cellular levels of C99; acetylation profile of cytosolic and nuclear proteins [3]: Neither compound 9 nor compound 19 produced significant changes; acetylation profile of the histone protein H3 and H4 ([3]; nuclear fraction): slight reduction; inhibition of in vitro activity of p300/CBP [4]: neither compound inhibited

More lines, main results first:

inhibitory activity of derivative relative to parent compound (in words) (ATase1 and ATase2 [1]) | SMILES | levels of BACE1 (BACE1) | levels of Aβ in the conditioned media / generation of Aβ (Aβ) | further results
decreased activity | O=C1C(Cl)=C2Nc3ccccc3OC2(O)c2ccccc21 (stereo not drawn) [Compound 9.E] | only 9.I retained significant ability | only 9.I retained significant ability | 
retained inhibitory properties | O=c1ccc2nc3ccc(O)cc3oc-2c1 [Compound 9.I] | retained significant ability | retained significant ability | endogenous levels of ATase1 and ATase2 (ATase1 and ATase2 [2]): significantly down-regulate
